{"source": "patent US8293786B2", "about": "(Alltranz Inc., priority 2007, dated 2012)", "key": {"[1]": {"assay": "Plasma stability of cannabidiol prodrugs (bioconversion to parent drug)", "format": "in vitro ADME", "conditions": "for % mono-prodrug at time (h) / % Di-prodrug at time (h): di-prodrug in plasma; for % mono-prodrug at time (h): mono-prodrug formed; for % Prodrug at time (h): mono-prodrug in plasma", "experimental": "An approximated 1 mg/mL stock solution of each prodrug was prepared in 100 μL of ethanol and 900 μL of acetonitrile. Ten (10) μL of stock was spiked into 1 mL of plasma and vortexed. The samples were kept sealed in an amber vial and samples were obtained to analyze for bioconversion to parent drug."}, "human abdominal skin": {"tested_on": "human abdominal skin", "assay": "In vitro human skin permeation and skin disposition, flow-through diffusion cells (Examples 2, 2A, 2B)", "format": "in vitro ADME", "conditions": "for 30 h cumulative amt / 30 h skin conc / Flux / Lag time / Flux enhancement / 24 h cumulative amt / 24 h skin conc: 40% aqueous PEG 400 receiver fluid; for Flux enhancement: total cannabidiol versus cannabidiol", "method_in_brief": "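Dermatomed (~200 μm) frozen human abdominal skin was mounted in flow-through cells at 32° C (0.95 cm^2), stratum corneum to donor. Donors were 0.10 mL 45:4:1 PG:H2O:IPM solution or 50 μL gel; receiver was 40% PEG 400 (HEPES-Hanks pH 7.4 or aqueous) with gentamicin at 0.8 mL/h. Samples were taken every 3 h for 24-42 h; skin accumulation was expressed as μmol/g wet tissue.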"}, "[2]": {"conditions": "Table 18, 90:8:2 PG:H2O:IPM donor solution, CBD from applied prodrug"}, "[3]": {"conditions": "Table 18, 90:8:2 PG:H2O:IPM donor solution, as applied compound (CBD or intact prodrug)"}, "[4]": {"conditions": "Table 18, 90:8:2 PG:H2O:IPM donor solution, mono-prodrug from applied di-prodrug"}, "[5]": {"conditions": "Table 18, 90:8:2 PG:H2O:IPM donor solution, prodrug applied, as total cannabidiol equivalents"}, "[6]": {"conditions": "Table 23, gel formulation, as applied compound (CBD or intact prodrug)"}, "[7]": {"conditions": "Table 23, gel formulation, mono-prodrug (ALL00149) from applied di-prodrug"}, "[8]": {"conditions": "Table 23, gel formulation, prodrug applied, as total cannabidiol equivalents"}, "[9]": {"conditions": "Table 23, gel formulation, CBD from applied prodrug"}}, "data": [{"smiles": "C=C(C)[C@@H]1CCC(C)=C[C@H]1c1c(OC(=O)CO)cc(CCCCC)cc1OC(=O)CO", "note": "[ALL00147, CBD Diglycolate]", "values": [{"measurement": "% mono-prodrug at time (h)", "setting": "[1]; Table 20, 0.5 h", "value": 0, "unit": "%"}, {"measurement": "% mono-prodrug at time (h)", "setting": "[1]; Table 20, 2 h", "value": 0, "unit": "%"}, {"measurement": "% mono-prodrug at time (h)", "setting": "[1]; Table 20, 22 h", "value": 0, "unit": "%"}, {"measurement": "% mono-prodrug at time (h)", "setting": "[1]; Table 20, 24 h", "value": 0, "unit": "%"}, {"measurement": "% Di-prodrug at time (h)", "setting": "[1]; Table 20, 0 h", "value": 100, "unit": "%"}, {"measurement": "% Di-prodrug at time (h)", "setting": "[1]; Table 20, 0.5 h", "value": 55, "unit": "%"}, {"measurement": "% Di-prodrug at time (h)", "setting": "[1]; Table 20, 2 h", "value": 32, "unit": "%"}, {"measurement": "% Di-prodrug at time (h)", "setting": "[1]; Table 20, 22 h", "value": 13, "unit": "%"}, {"measurement": "% Di-prodrug at time (h)", "setting": "[1]; Table 20, 24 h", "value": 12, "unit": "%"}, {"measurement": "% mono-prodrug at time (h)", "setting": "[1]; Table 24, 0 h", "value": 3, "unit": "%"}, {"measurement": "% mono-prodrug at time (h)", "setting": "[1]; Table 24, 0.5 h", "value": 37, "unit": "%"}, {"measurement": "% mono-prodrug at time (h)", "setting": "[1]; Table 24, 1 h", "value": 10, "unit": "%"}, {"measurement": "% mono-prodrug at time (h)", "setting": "[1]; Table 24, 2 h", "value": 2, "unit": "%"}, {"measurement": "% Di-prodrug at time (h)", "setting": "[1]; Table 24, 0 h", "value": 97, "unit": "%"}, {"measurement": "% Di-prodrug at time (h)", "setting": "[1]; Table 24, 0.5 h", "value": 0, "unit": "%"}, {"measurement": "% Di-prodrug at time (h)", "setting": "[1]; Table 24, 1 h", "value": 0, "unit": "%"}, {"measurement": "% Di-prodrug at time (h)", "setting": "[1]; Table 24, 2 h", "value": 0, "unit": "%"}, {"measurement": "30 h cumulative amt", "setting": "human abdominal skin; [2]", "value": "8.2 ± 7.0", "unit": "nmol"}, {"measurement": "30 h skin conc", "setting": "human abdominal skin; [2]", "value": "3.9 ± 0.8", "unit": "µmol/g"}, {"measurement": "Flux", "setting": "human abdominal skin; [2]", "value": "0.7 ± 0.6", "unit": "nmol/cm^2/h"}, {"measurement": "Lag time", "setting": "human abdominal skin; [2]", "value": "16.7 ± 0.7", "unit": "h"}, {"measurement": "30 h cumulative amt", "setting": "human abdominal skin; [3]", "value": "11.7 ± 3.8", "unit": "nmol"}, {"measurement": "30 h skin conc", "setting": "human abdominal skin; [3]", "value": "6.3 ± 5.6", "unit": "µmol/g"}, {"measurement": "Flux", "setting": "human abdominal skin; [3]", "value": "0.7 ± 0.01", "unit": "nmol/cm^2/h"}, {"measurement": "Lag time", "setting": "human abdominal skin; [3]", "value": "13.0 ± 5.9", "unit": "h"}, {"measurement": "30 h cumulative amt", "setting": "human abdominal skin; [4]", "value": "9.1 ± 0.2", "unit": "nmol"}, {"measurement": "30 h skin conc", "setting": "human abdominal skin; [4]", "value": "7.1 ± 6.3", "unit": "µmol/g"}, {"measurement": "Flux", "setting": "human abdominal skin; [4]", "value": "0.6 ± 0.2", "unit": "nmol/cm^2/h"}, {"measurement": "Lag time", "setting": "human abdominal skin; [4]", "value": "11.8 ± 5.9", "unit": "h"}, {"measurement": "30 h cumulative amt", "setting": "human abdominal skin; [5]", "value": "29.0 ± 3.4", "unit": "nmol"}, {"measurement": "30 h skin conc", "setting": "human abdominal skin; [5]", "value": "17.3 ± 12.6", "unit": "µmol/g"}, {"measurement": "Flux", "setting": "human abdominal skin; [5]", "value": "1.9 ± 0.8", "unit": "nmol/cm^2/h"}, {"measurement": "Lag time", "setting": "human abdominal skin; [5]", "value": "13.3 ± 5.0", "unit": "h"}, {"measurement": "Flux enhancement", "setting": "human abdominal skin; Table 18, 90:8:2 PG:H2O:IPM donor solution", "value": 0.24}, {"measurement": "24 h cumulative amt", "setting": "human abdominal skin; [6]", "value": 0.9, "unit": "nmol"}, {"measurement": "24 h skin conc", "setting": "human abdominal skin; [6]", "value": "0.8 ± 0.7", "unit": "µmol/g"}, {"measurement": "24 h cumulative amt", "setting": "human abdominal skin; [7]", "value": 5.7, "unit": "nmol"}, {"measurement": "24 h skin conc", "setting": "human abdominal skin; [7]", "value": "8.7 ± 6.6", "unit": "µmol/g"}, {"measurement": "Flux", "setting": "human abdominal skin; [7]", "value": 0.25, "unit": "nmol/cm^2/h"}, {"measurement": "24 h cumulative amt", "setting": "human abdominal skin; [8]", "value": 12.5, "unit": "nmol"}, {"measurement": "24 h skin conc", "setting": "human abdominal skin; [8]", "value": "9.5 ± 7.3", "unit": "µmol/g"}, {"measurement": "Flux", "setting": "human abdominal skin; [8]", "value": 0.58, "unit": "nmol/cm^2/h"}, {"measurement": "Flux enhancement", "setting": "human abdominal skin; Table 23, gel formulation", "value": 2.0}, {"measurement": "detected in the skin as", "setting": "human abdominal skin; in donor solution", "value": "prodrug, mono-substituted prodrug, ALL00149, and cannabidiol"}, {"measurement": "flux compared to cannabidiol", "setting": "human abdominal skin; in donor solution", "value": "did not increase the flux"}, {"measurement": "lag time compared to cannabidiol", "setting": "human abdominal skin; in donor solution", "value": "not decreased"}, {"measurement": "permeated through the skin as", "setting": "human abdominal skin; in donor solution", "value": "intact prodrug, mono-substituted prodrug (ALL00149), and cannabidiol"}, {"measurement": "total skin concentrations compared to cannabidiol", "setting": "human abdominal skin; in donor solution", "value": "not higher"}, {"measurement": "detected in the skin as", "setting": "human abdominal skin; in gel formulation", "value": "primarily as mono-prodrug, ALL00149 with a trace amount of ALL00147"}, {"measurement": "increase of the flux compared to cannabidiol", "setting": "human abdominal skin; in gel formulation", "value": 2, "unit": "fold"}, {"measurement": "share permeated through the skin as cannabidiol", "setting": "human abdominal skin; in gel formulation", "value": 47.2, "unit": "%"}, {"measurement": "share permeated through the skin as intact di-prodrug", "setting": "human abdominal skin; in gel formulation", "value": 7.2, "unit": "%"}, {"measurement": "share permeated through the skin as mono-prodrug", "setting": "human abdominal skin; in gel formulation", "value": 45.6, "unit": "%"}, {"measurement": "total skin concentrations compared to cannabidiol", "setting": "human abdominal skin; in gel formulation", "value": "weren't higher"}]}, {"smiles": "C=C(C)[C@@H]1CCC(C)=C[C@H]1c1c(O)cc(CCCCC)cc1OC(=O)CO", "note": "[ALL00149, CBD Glycolate]", "values": [{"measurement": "% Prodrug at time (h)", "setting": "[1]; Table 24, 0 h", "value": 100, "unit": "%"}, {"measurement": "% Prodrug at time (h)", "setting": "[1]; Table 24, 0.5 h", "value": 31, "unit": "%"}, {"measurement": "% Prodrug at time (h)", "setting": "[1]; Table 24, 1 h", "value": 12, "unit": "%"}, {"measurement": "% Prodrug at time (h)", "setting": "[1]; Table 24, 2 h", "value": 0, "unit": "%"}, {"measurement": "24 h cumulative amt", "setting": "human abdominal skin; [9]", "value": 1.2, "unit": "nmol"}, {"measurement": "24 h skin conc", "setting": "human abdominal skin; [9]", "value": "0.9 ± 0.0", "unit": "µmol/g"}, {"measurement": "24 h cumulative amt", "setting": "human abdominal skin; [6]", "value": 5.8, "unit": "nmol"}, {"measurement": "24 h skin conc", "setting": "human abdominal skin; [6]", "value": "46.0 ± 11.5", "unit": "µmol/g"}, {"measurement": "Flux", "setting": "human abdominal skin; [6]", "value": 0.29, "unit": "nmol/cm^2/h"}, {"measurement": "Lag time", "setting": "human abdominal skin; [6]", "value": 6.4, "unit": "h"}, {"measurement": "24 h cumulative amt", "setting": "human abdominal skin; [8]", "value": 6.9, "unit": "nmol"}, {"measurement": "24 h skin conc", "setting": "human abdominal skin; [8]", "value": "46.3 ± 11.8", "unit": "µmol/g"}, {"measurement": "Flux", "setting": "human abdominal skin; [8]", "value": 0.40, "unit": "nmol/cm^2/h"}, {"measurement": "Lag time", "setting": "human abdominal skin; [8]", "value": 6.2, "unit": "h"}, {"measurement": "Flux enhancement", "setting": "human abdominal skin; Table 23, gel formulation", "value": 1.4}, {"measurement": "detected in the skin as", "setting": "human abdominal skin; in gel formulation", "value": "primarily ALL00149 with a trace amount of cannabidiol"}, {"measurement": "lag time compared to cannabidiol", "setting": "human abdominal skin; in gel formulation", "value": "lower"}, {"measurement": "permeated through the skin as", "setting": "human abdominal skin; in gel formulation", "value": "primarily ALL00149 with a trace amount of cannabidiol"}, {"measurement": "total skin concentrations compared to cannabidiol", "setting": "human abdominal skin; in gel formulation", "value": "higher"}, {"measurement": "increase of the flux compared to cannabidiol", "setting": "human abdominal skin; in gel formulation, unit not given", "value": 1.4}]}]}
